Values quoted from earlier work, collected in paper PMC9606943, “Synthesis and Chemopreventive Potential of 5-FU/Genistein Hybrids on Colorectal Cancer Cells” (Pharmaceuticals, 2022).

What was measured:
MCF-7 = test system: MCF-7; design: method as in PMID 21389782; settings: ER-positive breast cancer cell line; cited from earlier work
21PT = test system: 21PT; design: method as in PMID 21389782; settings: ER-positive breast cancer cell line; cited from earlier work
T47D = test system: T47D; design: method as in PMID 21389782; settings: ER-positive breast cancer cell line; cited from earlier work
SW480 cells = test system: SW480 cells; design: method as in earlier work; settings: 48 h post-treatment with 300 µM; cited from earlier work

SMILES	IC50 (MCF-7)	IC50 (21PT)	IC50 (T47D)	reduction in cell viability (SW480 cells)
O=c1c(-c2ccc(OCCn3cc(-c4ccccc4)nn3)cc2)coc2cc(OCCn3cc(-c4ccccc4)nn3)cc(O)c12 [E]	800 nM	900 nM	900 nM	–
CC(=O)Oc1ccccc1C(=O)OCCn1cc(COc2cc(O)c3c(=O)c(-c4ccc(O)cc4)coc3c2)nn1 [F]	–	–	–	40.49%
